These results are taken from US20050288247A1, “Inducible inactivation of synaptic transmission” (Cold Spring Harbor Laboratory, priority 2004, published 2005).

For test [1], the system named is synaptic transmission of cortical neurons in cultured brain slices. Put plainly: Evoked EPSCs in cultured brain slices infected with adenovirus-based VAMP MIST construct. Format: cell-based. The source says:
We first tested the VAMP MIST construct in cultured brain slices. The adenovirus-based VAMP MIST construct was used to infect cortical neurons in cultured brain slices. Synaptic transmission was evoked with extracellular stimulation.

The subject of test [2] is synaptic transmission in acute cortical brain slices. Put plainly: Whole cell EPSC measurements in layer 2 pyramidal neurons in acute brain slices. Format: cell-based, mice. The source says: We further characterized CID-dependent inactivation of synaptic transmission using whole cell measurements of EPSC in layer (L) 2 pyramidal neurons in acute brain slices. MIST constructs were introduced into L 3 cells in vivo using in utero viral vector mediated gene delivery (VAMP/Syb MIST) or electroporation (Sph-StxTM MIST). Synaptic transmission was evoked with an extracellular stimulation electrode placed in a band of transfected/infected neurons, below (within 200 μm) the recording pipette.
Cortical brain slices (300 μm thick) were prepared from young mice (postnatal day 9-14) using a vibrating-blade microtome (VT1000S, Leica Microsystems). Chilled cutting solution contained 110 mM choline chloride, 25 mM NaHCO3, 25 mM D-glucose, 11.6 mM sodium ascorbate, 7 mM MgSO4, 3.1 mM sodium pyruvate, 2.5 mM KCl, 1.25 mM NaH2PO4, and 0.5 mM CaCl2. Slices were then transferred to artificial cerebrospinal fluid (“ACSF”) containing 127 mM NaCl, 25 mM NaHCO3, 25 mM D-glucose, 2.5 mM KCl, 2 mM MgCl2,1 mM CaCl2, and 1.25 mM NaH2PO4, aerated with 95% O2/5% CO2. Slices in ACSF were first incubated at 34° C. for 0.5 hr, then maintained at room temperature prior to use. For recordings, ACSF contained 4 mM MgCl2, 4 mM CaCl2 and […] CPP.
Neurons were visualized with infrared differential interference contrast optics, and patched using borosilicate electrodes (resistances, 4-7 MΩ). Access resistances were in the range 10-30 MΩ. Intracellular solution contained 120 mM CsMeSO3, 20 mM CsCl, 4 mM NaCl, 10 mM HEPES, 10 mM BAPTA, 4 mM Mg2ATP, and 0.3 mM Na2GTP, 14 mM sodium phosphocreatine, 3 mM ascorbate, and 0.1 Alexa-594 (Molecular Probes); pH was adjusted to 7.25 with CsOH. Excitatory currents were measured at a holding potential of −65 mV, close to reversal for fast inhibition. MIST-expressing neurons were stimulated with tungsten bipolar electrode in the middle of transfected region, and monosynaptic responses were recorded from cells within […]. Responses were amplified (Multiclamp, Axon Instruments), filtered at 1 kHz, and digitized at 10 kHz. […]

In the case of `CC[C@H](C(=O)N1CCCC[C@H]1C(=O)O[C@H](CCc1ccc(OC)c(OC)c1)c1cccc(OCC(=O)NCC(CNC(=O)COc2cccc([C@@H](CCc3ccc(OC)c(OC)c3)OC(=O)[C@@H]3CCCCN3C(=O)[C@@H](CC)c3cc(OC)c(OC)c(OC)c3)c2)CN(C)C)c1)c1cc(OC)c(OC)c(OC)c1` [AP20187], in test [1] (20 nM AP20187 in DMSO added to the bath, VAMP MIST infected slices), the “amplitudes of monosynaptic EPSC and network discharge” value is recorded as “rapid decrease”. Further, the “amplitude of monosynaptic EPSCs” value in test [2] (bath application 100 nM AP20187, VAMP/Syb MIST) was “rapid decrease”.

For `CC[C@H](C(=O)N1CCCCC1C(=O)O[C@H](CCc1ccc(OC)c(OC)c1)c1cccc(OCC(=O)NCCCN(C)C)c1)c1cc(OC)c(OC)c(OC)c1` (some centres unmarked) [AP21998], in test [1] (200 nM AP21998 reverser after homodimerizer), the “recovery of monosynaptic EPSC and network discharge” value is “rapid recovery”. Moreover, the “recovery of synaptic response with reverser” value in test [2] (excess of monomeric reverser, 5 μM AP21998) was “rapid partial recovery”.

For AP21967, in test [2] (bath application 500 nM AP21967, Sph-StxTM MIST), the “amplitude of monosynaptic EPSCs” value is on record as “rapid decrease”.
